The record followed here is ChEMBL document CHEMBL3217722, “Synthesis of hybrid 4-anilinoquinoline triazines as potent antimalarial agents, their in silico modeling and bioevaluation as Plasmodium falciparumtransketolase and -hematin inhibitors” (Medchemcomm, 2012).

The subject of series [1] is Plasmodium falciparum. The series is described as follows: Antiplasmodial activity against chloroquine-sensitive Plasmodium falciparum 3D7 after 72 hrs by SYBR Green-1 dye-based fluorescence assay. The series is classed as functional, organism-based. To be noted: 3D7, 72 h.
A short description of series [2]: Selectivity index, ratio of IC50 for African green monkey Vero cells to IC50 for Plasmodium falciparum. To be noted: read-out: Ratio IC50. The class given is toxicity, cell-based.
In series [3] the test system is Plasmodium yoelii. As to the kind of experiment: Inhibition of beta-hematin formation in Plasmodium yoelii infected Swiss mouse plasma after 16 hrs. The class given is functional.
The test system of series [4] is Plasmodium falciparum. As to the kind of experiment: Antiplasmodial activity against chloroquine-resistant Plasmodium falciparum K1 after 72 hrs by SYBR Green-1 dye-based fluorescence assay. The following applies: K1, 72 h. The series is classed as functional, organism-based.
Series [5] relates to Plasmodium yoelii. As to the kind of experiment: Antimalarial activity against chloroquine-resistant Plasmodium yoelii N-67 infected in Swiss mouse assessed as inhibition of parasitemia at 100 mg/kg, po qd for 4 days relative to control. The class given is functional. The following applies: N-67, 96 h.
Series [6] relates to Plasmodium yoelii. The series is described as follows: Antimalarial activity against chloroquine-resistant Plasmodium yoelii N-67 infected in Swiss mouse assessed as mouse survival at 100 mg/kg, po qd for 4 days measured on day 28. The class given is functional, organism-based. Further details: dose 100 mg/kg.
A short description of series [7]: Inhibition of Plasmodium falciparum transketolase using fructose-6-phosphate as substrate by spectrophotometric analysis.

≈ marks a conversion by molar mass, not a printed value. Calls of active or inactive are those of the source. The calls are words filed in the database; no cut-off is given here.

As usually defined, the IC50 is the midpoint of a concentration-inhibition curve. Regarding `CN1CCN(c2nc(Nc3ccc(Nc4ccnc5cc(Cl)ccc45)cc3)nc(N3CCc4ccccc4C3)n2)CC1`, the IC50 in the series on Plasmodium falciparum [1] is 0.0281 µg/mL (≈ 0.0486 µM); in the series on Plasmodium yoelii [3] it was 2.81 µg/mL (≈ 4.86 µM). Moreover, the selectivity ratio in series [2] turned out to be 48.4.
Regarding `Fc1cccc(Nc2nc(Nc3ccc(Nc4ccnc5cc(Cl)ccc45)cc3)nc(N3CCCCC3)n2)c1`, the figures for the IC50 with Plasmodium falciparum [4], with Plasmodium falciparum [1] and with Plasmodium yoelii [3] were 0.107 µg/mL (≈ 0.197 µM), 0.129 µg/mL (≈ 0.238 µM) and 3.1 µg/mL (≈ 5.73 µM), respectively. The selectivity ratio in series [2] came out at 75.1.
Consider `Clc1ccc2c(Nc3ccc(Nc4nc(NCCCN5CCOCC5)nc(N5CCc6ccccc6C5)n4)cc3)ccnc2c1`, for which the figures for the IC50 in the series with Plasmodium falciparum [4], with Plasmodium falciparum [1] and with Plasmodium yoelii [3] were 0.0555 µg/mL (≈ 0.0892 µM), 0.0203 µg/mL (≈ 0.0327 µM) and 2.09 µg/mL (≈ 3.36 µM), respectively. Further, the selectivity ratio in series [2] came out at 436.
As for `Clc1ccc(Nc2nc(NCCCN3CCOCC3)nc(Nc3ccc(Nc4ccnc5cc(Cl)ccc45)cc3)n2)cc1`, the 50% inhibitory concentration (IC50) came to 0.00858 µg/mL (≈ 0.0139 µM) in the series with Plasmodium falciparum [4], 0.00463 µg/mL (≈ 0.00751 µM) in the series on Plasmodium falciparum [1] and 2.25 µg/mL (≈ 3.65 µM) with Plasmodium yoelii [3]. The selectivity ratio in series [2] was 482.
Take `Clc1ccc2c(Nc3ccc(Nc4nc(NCCN5CCOCC5)nc(N5CCOCC5)n4)cc3)ccnc2c1`: the results for the IC50 in the series with Plasmodium falciparum [4], in the series with Plasmodium falciparum [1] and in the series on Plasmodium yoelii [3] were 0.0532 µg/mL (≈ 0.0946 µM), 0.00587 µg/mL (≈ 0.0104 µM) and 9.82 µg/mL (≈ 17.5 µM), respectively. Besides, in series [2], the selectivity ratio turned out to be 41.6.
On to `CN1CCN(c2nc(Nc3ccc(Nc4ccnc5cc(Cl)ccc45)cc3)nc(N3CCOCC3)n2)CC1`, for which the values for the IC50 in the series with Plasmodium falciparum [4], in the series on Plasmodium falciparum [1] and in the series on Plasmodium yoelii [3] were 0.00286 µg/mL (≈ 0.00538 µM), 0.00322 µg/mL (≈ 0.00605 µM) and 6.5 µg/mL (≈ 12.2 µM), respectively. Further, in series [2], the selectivity ratio stood at 121.
Take `Clc1cccc(Nc2nc(NCCN3CCOCC3)nc(Nc3ccc(Nc4ccnc5cc(Cl)ccc45)cc3)n2)c1`: the IC50 with Plasmodium falciparum [4] amounted to 0.00649 µg/mL (≈ 0.0108 µM); with Plasmodium falciparum [1], 0.0306 µg/mL (≈ 0.0508 µM); in the series with Plasmodium yoelii [3], 2.01 µg/mL (≈ 3.34 µM). Moreover, in series [2], the selectivity ratio was 101.
In general, inhibition in vivo refers to how much of the control response was suppressed. Turning to `CN1CCN(c2nc(Nc3ccc(F)cc3)nc(Nc3ccc(Nc4ccnc5cc(Cl)ccc45)cc3)n2)CC1`, the inhibition in vivo at 100 mg/kg in the series on Plasmodium yoelii [5] turned out to be 100%. For the same compound, in the series on Plasmodium yoelii [6], the result was inactive. Moreover, the IC50 is 0.00206 µg/mL (≈ 0.0037 µM) with Plasmodium falciparum [4], 0.00897 µg/mL (≈ 0.0161 µM) in the series on Plasmodium falciparum [1] and 2.08 µg/mL (≈ 3.74 µM) in the series on Plasmodium yoelii [3]. Also, the selectivity ratio in series [2] worked out at 122.
Consider `COc1ccc(Nc2nc(NCCCN3CCOCC3)nc(Nc3ccc(Nc4ccnc5cc(Cl)ccc45)cc3)n2)cc1OC`, for which the values for the IC50 with Plasmodium falciparum [4], in the series with Plasmodium falciparum [1] and in the series with Plasmodium yoelii [3] were 0.0026 µg/mL (≈ 0.00405 µM), 0.00458 µg/mL (≈ 0.00713 µM) and 2.3 µg/mL (≈ 3.58 µM), respectively. Further, in series [2], the selectivity ratio worked out at 413.
In the case of `Clc1ccc2c(Nc3ccc(Nc4nc(NCCN5CCOCC5)nc(N5CCc6ccccc6C5)n4)cc3)ccnc2c1`, the IC50 came to 0.0452 µg/mL (≈ 0.0743 µM) with Plasmodium falciparum [1] and 2.08 µg/mL (≈ 3.42 µM) in the series on Plasmodium yoelii [3]. Besides, the selectivity ratio in series [2] was 1160.
For the compound `CN1CCN(c2nc(Nc3ccc(Nc4ccnc5cc(Cl)ccc45)cc3)nc(N3CCCc4ccccc43)n2)CC1`, the IC50 in the series on Plasmodium falciparum [4] was determined as 0.0682 µg/mL (≈ 0.118 µM); with Plasmodium falciparum [1], 0.0126 µg/mL (≈ 0.0219 µM); with Plasmodium yoelii [3], 2.48 µg/mL (≈ 4.29 µM). For the same compound, the selectivity ratio in series [2] turned out to be 74.4.
The compound `O=C(O)C(=O)Cc1ccc(O)cc1` [4-HYDROXYPHENYLPYRUVIC ACID] returned a 50% inhibitory concentration (IC50) in series [7] of 103 µM.
On to `Clc1cccc(Nc2nc(NCCCN3CCOCC3)nc(Nc3ccc(Nc4ccnc5cc(Cl)ccc45)cc3)n2)c1`, for which the IC50 in series [7] stood at 76.4 µM; in the series on Plasmodium falciparum [4] it was 0.00882 µg/mL (≈ 0.0143 µM); in the series on Plasmodium falciparum [1], 0.00382 µg/mL (≈ 0.0062 µM); in the series on Plasmodium yoelii [3] it was 4.56 µg/mL (≈ 7.4 µM). Besides, the selectivity ratio in series [2] worked out at 180.
As to `Clc1ccc2c(Nc3ccc(Nc4nc(NCCN5CCOCC5)nc(N5CCCc6ccccc65)n4)cc3)ccnc2c1`, the IC50 turned out to be 0.275 µg/mL (≈ 0.452 µM) in the series on Plasmodium falciparum [4], 0.0174 µg/mL (≈ 0.0285 µM) in the series with Plasmodium falciparum [1] and 2.31 µg/mL (≈ 3.8 µM) in the series on Plasmodium yoelii [3]. For the same compound, the selectivity ratio in series [2] is 588.
In the case of `Fc1ccc(Nc2nc(NCCCN3CCOCC3)nc(Nc3ccc(Nc4ccnc5cc(Cl)ccc45)cc3)n2)cc1`, the figures for the IC50 in the series on Plasmodium falciparum [1] and in the series with Plasmodium yoelii [3] were 0.0158 µg/mL (≈ 0.0264 µM) and 2.17 µg/mL (≈ 3.62 µM), respectively. For the same compound, the selectivity ratio in series [2] was found to be 682.
With `COc1ccc(Nc2nc(Nc3ccc(Nc4ccnc5cc(Cl)ccc45)cc3)nc(N3CCN(C)CC3)n2)cc1OC`, the results for the IC50 in the series on Plasmodium falciparum [4], in the series with Plasmodium falciparum [1] and in the series on Plasmodium yoelii [3] were 0.00486 µg/mL (≈ 0.00813 µM), 0.00504 µg/mL (≈ 0.00843 µM) and 3.05 µg/mL (≈ 5.1 µM), respectively. Also, in series [2], the selectivity ratio was found to be 169.
The like results for `Fc1ccc(Nc2nc(Nc3ccc(Nc4ccnc5cc(Cl)ccc45)cc3)nc(N3CCCCC3)n2)cc1` were, in that order, above 0.5 µg/mL, 0.0417 µg/mL (≈ 0.0772 µM), 2.43 µg/mL (≈ 4.49 µM) and 520.
